What is called pKi is the negative decadic logarithm of the Ki, by convention in mol/L. Higher therefore signals a small Ki. In general, ED50 refers to the midpoint of the dose-response relation.

Among the data in ChEMBL document CHEMBL1136546, “SLV310, a novel, potential antipsychotic, combining potent dopamine D2 receptor antagonism with serotonin reuptake inhibition” (Bioorg Med Chem Lett, 2003) are Ki and ED50 values, retold here.

For test [1], the target named is Sodium-dependent serotonin transporter (Rattus norvegicus, UniProt P31652). Nature of the test: In vitro binding affinity for serotonin reuptake sites in rat frontal cortex membranes by [3H]paroxetine displacement. It is filed as cell membranes, Membrane.
For test [2], the target named is D(2) dopamine receptor (Homo sapiens, UniProt P14416). Nature of the test: In vitro binding affinity at human cloned dopamine receptor D2 (long) stably expressed in CHO cells by [3H]spiperone displacement. The class given is cell-based.
The subject of test [3] is Mus musculus. Nature of the test: Dopaminergic antagonistic activity was determined in vivo by antagonising apomorphine induced climbing behavior (APO) in mice by oral administration. The class given is functional.
Test [4] concerns Mus musculus. The experiment in a line: Serotonin reuptake activity was determined in vivo by potentiation of 5-hydroxytryptophan induced serotonin syndrome like behavior in mice by oral administration. It is filed as functional.
Test [5] relates to Rattus norvegicus. The experiment in a line: Effective dose to exhibit antipsychotic potency after oral administration in rats was determined. It is filed as functional.

pKi: −log10 of the molar value. Some results are limits rather than exact numbers.

Chain of Sodium-dependent serotonin transporter (P31652 whole entry): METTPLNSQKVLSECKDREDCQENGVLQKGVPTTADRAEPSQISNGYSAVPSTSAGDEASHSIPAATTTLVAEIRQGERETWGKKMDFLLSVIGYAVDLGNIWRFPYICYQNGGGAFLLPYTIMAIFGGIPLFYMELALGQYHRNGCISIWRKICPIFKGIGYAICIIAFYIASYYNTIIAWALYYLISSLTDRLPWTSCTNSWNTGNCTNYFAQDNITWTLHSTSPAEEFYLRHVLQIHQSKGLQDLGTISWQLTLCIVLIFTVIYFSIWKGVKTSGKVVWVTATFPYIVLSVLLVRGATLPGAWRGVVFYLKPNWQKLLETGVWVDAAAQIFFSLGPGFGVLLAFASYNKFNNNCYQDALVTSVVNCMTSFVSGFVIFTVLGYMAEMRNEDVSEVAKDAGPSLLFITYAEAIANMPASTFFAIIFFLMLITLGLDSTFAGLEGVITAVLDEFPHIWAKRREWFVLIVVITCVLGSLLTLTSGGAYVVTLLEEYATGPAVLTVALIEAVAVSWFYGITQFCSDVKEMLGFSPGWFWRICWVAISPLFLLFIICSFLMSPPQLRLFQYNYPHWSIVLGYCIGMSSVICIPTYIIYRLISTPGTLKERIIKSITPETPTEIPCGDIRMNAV
Chain of D(2) dopamine receptor (P14416 whole entry): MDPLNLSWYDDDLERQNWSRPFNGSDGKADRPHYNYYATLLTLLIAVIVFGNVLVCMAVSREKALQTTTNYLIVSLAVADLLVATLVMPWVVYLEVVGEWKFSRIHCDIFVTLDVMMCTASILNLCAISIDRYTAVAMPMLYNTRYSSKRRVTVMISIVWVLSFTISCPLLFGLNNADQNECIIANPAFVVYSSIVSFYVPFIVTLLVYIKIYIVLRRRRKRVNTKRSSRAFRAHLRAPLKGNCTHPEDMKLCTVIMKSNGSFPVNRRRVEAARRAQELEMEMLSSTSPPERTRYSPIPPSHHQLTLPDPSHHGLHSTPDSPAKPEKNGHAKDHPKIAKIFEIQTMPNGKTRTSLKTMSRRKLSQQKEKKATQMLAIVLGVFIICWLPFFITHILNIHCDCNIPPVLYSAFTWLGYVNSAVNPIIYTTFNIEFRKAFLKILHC

`Cc1cccc2c1C(=O)N(CCCCCN1CC=C(c3c[nH]c4ccc(F)cc34)CC1)C2=O`: the pKi in test [1] is 9.00; in test [2], 7.60.

Consider `O=C1c2ccc(F)cc2C(=O)N1CCCCCN1CC=C(c2c[nH]c3ccccc23)CC1`, for which the values for the pKi in test [1] and in test [2] were 8.70 and 7.40, respectively.

Regarding `O=C1c2ccccc2C(=O)N1CCCCCN1CC=C(c2c[nH]c3ccc(Cl)cc23)CC1`, the pKi was 7.80 in test [1] and 7.70 in test [2].

Regarding `Cc1ccc2c(c1)C(=O)N(CCCCCN1CC=C(c3c[nH]c4ccc(F)cc34)CC1)C2=O`, the results for the pKi in test [1] and in test [2] were 8.52 and 7.70, respectively.

On to `O=C1c2ccccc2C(=O)N1CCCCN1CC=C(c2c[nH]c3ccc(F)cc23)CC1`, for which the negative-log Ki (pKi) in test [1] is 9.22; in test [2] it was 7.80.

As for `O=C1c2cccc(F)c2C(=O)N1CCCCCN1CC=C(c2c[nH]c3ccc(F)cc23)CC1`, the negative-log Ki (pKi) in test [1] is 9.40; in test [2] it was 7.92. For the same compound, the values for the median effective dose (ED50) in test [3] and in test [4] were 6.1 mg/kg and 10 mg/kg, respectively.

In test [1], `C1=C(c2c[nH]c3ccccc23)CCNC1` had a pKi of 8.22.

With `O=C1c2ccc(F)cc2C(=O)N1CCCCCN1CC=C(c2c[nH]c3ccc(F)cc23)CC1`, the pKi is 8.89 in test [1] and 8.00 in test [2]. In addition, the median effective dose (ED50) in test [3] came to 5 mg/kg; in test [4], 10 mg/kg.

As to `Cc1cccc2c1C(=O)N(CCCCCN1CC=C(c3c[nH]c4ccccc34)CC1)C2=O`, the pKi in test [1] was 9.00; in test [2] it was 7.00.

As for `O=C(CCCN1CCC(CCc2c[nH]c3ccccc23)CC1)c1ccc(F)cc1`, the negative-log Ki (pKi) in test [1] is 8.70; in test [2] it was 7.40. Further, the ED50 in test [3] was 11 mg/kg; in test [4], more than 30 mg/kg.

As to `Cc1ccc2c(c1)C(=O)N(CCCCCN1CC=C(c3c[nH]c4ccccc34)CC1)C2=O`, the values for the negative logarithm of the Ki (pKi) in test [1] and in test [2] were 8.70 and 7.40, respectively.

As for `O=C1c2ccccc2C(=O)N1CCCCCN1CC=C(c2c[nH]c3ccc(F)cc23)CC1`, the values for the pKi in test [1] and in test [2] were 8.60 and 8.30, respectively. In addition, the ED50 in test [5] was found to be 17.5 mg/kg; in test [3], 5.6 mg/kg; in test [4], 5.9 mg/kg.

For `Cc1cccc2c(C3=CCN(CCCCCN4C(=O)c5ccccc5C4=O)CC3)c[nH]c12`, the figures for the negative logarithm of the Ki (pKi) in test [1] and in test [2] were 8.89 and 7.40, respectively.

Regarding `O=C1c2cccc(F)c2C(=O)N1CCCCCN1CC=C(c2c[nH]c3ccccc23)CC1`, the pKi is 9.10 in test [1] and 7.60 in test [2]. The ED50 is more than 20 mg/kg in test [3] and less than 50 mg/kg in test [4].

As for `O=C(CCCN1CCC(O)(c2ccc(Cl)cc2)CC1)c1ccc(F)cc1` [HALOPERIDOL], in test [3], the ED50 is 0.1 mg/kg.

Regarding `O=C1c2ccccc2C(=O)N1CCCCCCCN1CC=C(c2c[nH]c3ccc(F)cc23)CC1`, the pKi in test [1] was 9.10; in test [2] it was 7.60.

`c1ccc2c(CCC3CCNCC3)c[nH]c2c1` [INDALPINE]: the pKi in test [2] is less than 6.00.

Regarding `O=C1c2ccccc2C(=O)N1CCCCCN1CC=C(c2c[nH]c3ccccc23)CC1`, the pKi was 8.60 in test [1] and 7.60 in test [2]. In addition, the ED50 in test [3] came to 14 mg/kg; in test [4] it was 7.1 mg/kg.

As to `O=C1c2ccccc2C(=O)N1CCCN1CC=C(c2c[nH]c3ccc(F)cc23)CC1`, the figures for the pKi in test [1] and in test [2] were 7.60 and 7.70, respectively.
